The values below come from ChEMBL document CHEMBL1201862, “PubChem BioAssay data set” (2004).

What is called IC50 is the concentration that inhibits the measured activity by half.

SMILES strings stand for the structures. The source made the active and inactive calls.

In experiment [1] the target is T1, Short transient receptor potential channel 4 (Mus musculus, UniProt Q9QUQ5).
T1 sequence (Q9QUQ5 whole entry): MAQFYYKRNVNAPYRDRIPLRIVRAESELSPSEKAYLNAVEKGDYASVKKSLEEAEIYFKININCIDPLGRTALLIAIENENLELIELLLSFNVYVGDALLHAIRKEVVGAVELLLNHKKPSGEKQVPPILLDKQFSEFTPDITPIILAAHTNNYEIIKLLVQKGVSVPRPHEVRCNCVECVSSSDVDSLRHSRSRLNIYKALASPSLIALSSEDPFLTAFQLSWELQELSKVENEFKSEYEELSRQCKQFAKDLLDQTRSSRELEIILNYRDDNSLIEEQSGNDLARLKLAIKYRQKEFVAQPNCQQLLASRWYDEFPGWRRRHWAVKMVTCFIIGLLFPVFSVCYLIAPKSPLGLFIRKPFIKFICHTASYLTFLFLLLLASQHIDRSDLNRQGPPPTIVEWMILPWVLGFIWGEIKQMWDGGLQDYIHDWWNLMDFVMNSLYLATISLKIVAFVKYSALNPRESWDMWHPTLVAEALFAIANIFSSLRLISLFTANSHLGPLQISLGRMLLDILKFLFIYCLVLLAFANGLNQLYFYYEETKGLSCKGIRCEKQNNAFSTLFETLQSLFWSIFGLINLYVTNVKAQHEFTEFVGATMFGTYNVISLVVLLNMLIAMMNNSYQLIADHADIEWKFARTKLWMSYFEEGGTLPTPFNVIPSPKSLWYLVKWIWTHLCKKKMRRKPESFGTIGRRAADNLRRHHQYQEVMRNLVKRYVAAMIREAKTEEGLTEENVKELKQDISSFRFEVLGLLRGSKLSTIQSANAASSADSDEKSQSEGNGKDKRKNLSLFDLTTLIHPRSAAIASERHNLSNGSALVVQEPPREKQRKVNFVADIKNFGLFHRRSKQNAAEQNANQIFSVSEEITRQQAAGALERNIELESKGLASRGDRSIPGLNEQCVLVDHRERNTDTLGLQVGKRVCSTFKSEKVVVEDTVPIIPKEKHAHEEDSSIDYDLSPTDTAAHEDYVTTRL
The experiment in a line: calcium entry via TRPC4 opening agents – cell-based, HEK293 TRPC4/mu-opioid, Fluo-4 calcium, dose response (AID 434937). The experiment is classed as functional.

For experiment [2], the target named is T2, Corticotropin-releasing factor receptor 2/Corticotropin-releasing factor-binding protein (Homo sapiens, UniProt P24387+Q13324).
T2 sequence (Q13324 whole entry): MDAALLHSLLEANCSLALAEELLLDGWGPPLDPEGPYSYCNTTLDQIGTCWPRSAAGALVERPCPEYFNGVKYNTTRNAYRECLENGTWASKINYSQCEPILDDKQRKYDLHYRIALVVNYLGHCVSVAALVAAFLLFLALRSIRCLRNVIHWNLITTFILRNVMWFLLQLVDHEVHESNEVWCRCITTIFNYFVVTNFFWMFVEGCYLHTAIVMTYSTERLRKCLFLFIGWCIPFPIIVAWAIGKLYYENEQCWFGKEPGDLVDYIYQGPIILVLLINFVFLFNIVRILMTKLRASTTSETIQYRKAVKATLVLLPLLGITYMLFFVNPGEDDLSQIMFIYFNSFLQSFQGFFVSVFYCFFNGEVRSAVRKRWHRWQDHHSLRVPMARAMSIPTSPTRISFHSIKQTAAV
T2 sequence (P24387 whole entry): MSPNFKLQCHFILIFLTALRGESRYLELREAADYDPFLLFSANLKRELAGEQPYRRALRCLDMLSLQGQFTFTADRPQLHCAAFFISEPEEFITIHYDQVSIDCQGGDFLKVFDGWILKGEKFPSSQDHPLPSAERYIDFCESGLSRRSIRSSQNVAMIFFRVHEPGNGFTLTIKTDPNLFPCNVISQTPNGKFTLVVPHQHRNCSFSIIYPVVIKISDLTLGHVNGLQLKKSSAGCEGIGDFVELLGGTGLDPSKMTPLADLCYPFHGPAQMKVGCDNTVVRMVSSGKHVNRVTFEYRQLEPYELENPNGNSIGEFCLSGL
The experiment in a line: activators of CRF receptor 2 with binding protein – uHTS hits, confirmation (AID 602473). It is filed as functional. Particulars: read-out: EC50_Mean.

Experiment [3] deals with HEK293. The experiment in a line: cells. It is filed as functional, cell-based. The note with it: Homo sapiens.
The test system of experiment [4] is HEK293. The experiment in a line: cells. It is filed as functional, cell-based. Particulars: Homo sapiens. This is another data set of the same source.
Experiment [5] concerns HEK293. The experiment can be described thus: NOD2 signaling inhibitors in MDP-stimulated cells, cell-based, uHTS, luminescence (AID 2001). The experiment is classed as functional. The note with it: Homo sapiens.
The subject of experiment [6] is HEK293. The experiment can be described thus: inhibition of NOD1-driven NF-kB reporter – cell-based, luminescence, uHTS, primary screen (AID 1578). It is filed as functional. Particulars: Homo sapiens.
Experiment [7] deals with T3, Coagulation factor XII (Homo sapiens, UniProt P00748).
T3 sequence (P00748 whole entry): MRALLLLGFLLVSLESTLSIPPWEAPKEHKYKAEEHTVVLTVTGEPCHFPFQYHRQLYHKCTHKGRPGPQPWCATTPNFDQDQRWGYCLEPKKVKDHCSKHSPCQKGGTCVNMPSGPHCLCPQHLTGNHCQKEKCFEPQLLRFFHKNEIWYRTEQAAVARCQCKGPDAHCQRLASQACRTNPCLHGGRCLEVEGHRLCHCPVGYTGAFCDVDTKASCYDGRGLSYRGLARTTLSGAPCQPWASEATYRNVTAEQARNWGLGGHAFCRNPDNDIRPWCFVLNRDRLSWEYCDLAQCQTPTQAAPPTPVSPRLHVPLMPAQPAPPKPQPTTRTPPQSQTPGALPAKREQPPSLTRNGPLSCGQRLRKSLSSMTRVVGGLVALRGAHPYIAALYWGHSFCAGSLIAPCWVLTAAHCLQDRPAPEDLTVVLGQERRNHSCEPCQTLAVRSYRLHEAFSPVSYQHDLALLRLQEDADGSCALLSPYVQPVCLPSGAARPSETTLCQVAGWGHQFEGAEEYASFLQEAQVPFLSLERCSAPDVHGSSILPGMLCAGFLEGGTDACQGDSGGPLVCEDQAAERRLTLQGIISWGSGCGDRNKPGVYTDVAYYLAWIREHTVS
It is filed as functional.

Experiment [8] has as its target T4, Streptokinase A (Streptococcus pyogenes serotype M1, UniProt P10520).
T4 sequence (P10520 whole entry): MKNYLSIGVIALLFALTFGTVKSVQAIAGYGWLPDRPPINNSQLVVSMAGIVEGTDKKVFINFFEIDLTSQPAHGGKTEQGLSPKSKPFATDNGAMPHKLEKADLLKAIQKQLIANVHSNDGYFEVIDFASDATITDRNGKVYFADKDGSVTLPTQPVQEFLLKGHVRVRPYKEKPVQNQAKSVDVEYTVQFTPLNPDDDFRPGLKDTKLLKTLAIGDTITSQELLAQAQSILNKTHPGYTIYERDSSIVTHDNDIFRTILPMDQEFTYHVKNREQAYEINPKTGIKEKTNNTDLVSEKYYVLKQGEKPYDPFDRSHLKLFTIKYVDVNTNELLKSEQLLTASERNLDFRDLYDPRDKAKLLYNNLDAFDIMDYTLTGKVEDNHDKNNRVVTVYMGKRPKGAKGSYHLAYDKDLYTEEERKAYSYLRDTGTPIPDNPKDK
The experiment in a line: viability-normalized secreted streptokinase activity reduction – plasminogen activation absorbance, OD405, dose response (AID 1914).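 Also: secreted streptokinase activity via plasminogen activation per viability signal from cell pellet.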 It is filed as functional, Streptococcus pyogenes M1 GAS.

The test system of experiment [9] is Streptococcus sp. 'group A'. The experiment in a line: Streptococcus pyogenes SK(-)GAS viability under kanamycin – luminescence, BacTiterGlo, confirmation, counter-screen for streptokinase expression inhibitor project, dose response (AID 1900). The experiment is classed as functional, organism-based. In general terms: The purpose of a counterscreen is to sort out artefacts and off-target activity.

Experiment [10] has as its system Streptococcus. The experiment in a line: GAS UMAA2166 growth inhibition – luminescence, BacTiterGlo, counter-screen for streptokinase expression inhibitor project, dose response (AID 1915).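 Also: potency for reduction of bacterial viability or growth.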 The experiment is classed as functional, organism-based.
Experiment [11] in a line: Luminescence Cell-Based Dose Confirmation HTS to Identify Inhibitors of Platelet Dense Granule Release. [Related pubchem assays: 1663 (Primary HTS), 1678 (Summary of Project)]. It is filed as functional.
Experiment [12] addresses Luciferin 4-monooxygenase (Photinus pyralis, UniProt P08659). The experiment in a line: inhibition of purified Photinus pyralis luciferase – biochemical, luminescence, dose response (AID 1891).
For experiment [13], the target named is T5, Calpain-2 catalytic subunit (Sus scrofa, UniProt P43367).
T5 sequence (P43367 whole entry): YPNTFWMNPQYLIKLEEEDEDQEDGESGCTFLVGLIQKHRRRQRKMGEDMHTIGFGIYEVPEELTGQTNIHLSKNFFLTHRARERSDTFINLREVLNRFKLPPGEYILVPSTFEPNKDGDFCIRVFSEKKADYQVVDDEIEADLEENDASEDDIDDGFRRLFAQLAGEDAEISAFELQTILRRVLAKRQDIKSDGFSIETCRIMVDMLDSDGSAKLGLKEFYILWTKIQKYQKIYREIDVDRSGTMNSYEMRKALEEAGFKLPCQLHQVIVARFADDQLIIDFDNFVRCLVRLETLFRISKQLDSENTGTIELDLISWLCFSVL
The experiment in a line: m-calpain protease blockers, concentration series – biochemical, fluorogenic peptide substrate, dose response (AID 1420). It is filed as functional.

In experiment [14] the target is T6, Protein skinhead-1 (Caenorhabditis elegans, UniProt P34707).
T6 sequence (P34707 whole entry): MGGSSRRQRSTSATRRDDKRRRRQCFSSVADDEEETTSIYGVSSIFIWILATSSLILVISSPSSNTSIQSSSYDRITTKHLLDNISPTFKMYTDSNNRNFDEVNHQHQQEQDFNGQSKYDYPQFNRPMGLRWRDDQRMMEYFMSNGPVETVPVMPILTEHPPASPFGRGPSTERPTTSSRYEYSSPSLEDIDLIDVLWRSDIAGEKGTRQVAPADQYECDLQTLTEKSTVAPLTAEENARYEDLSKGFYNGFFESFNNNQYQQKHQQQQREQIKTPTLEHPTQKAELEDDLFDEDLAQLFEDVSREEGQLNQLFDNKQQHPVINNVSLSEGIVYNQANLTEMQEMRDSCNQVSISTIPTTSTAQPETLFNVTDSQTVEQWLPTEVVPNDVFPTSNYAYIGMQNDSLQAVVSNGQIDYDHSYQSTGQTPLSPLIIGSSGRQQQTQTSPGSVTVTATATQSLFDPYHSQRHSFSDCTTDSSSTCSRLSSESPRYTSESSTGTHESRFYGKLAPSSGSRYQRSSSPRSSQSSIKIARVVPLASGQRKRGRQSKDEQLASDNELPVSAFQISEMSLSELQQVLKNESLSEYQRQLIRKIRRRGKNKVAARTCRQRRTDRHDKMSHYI
The experiment is classed as functional.

Chain of Luciferin 4-monooxygenase (P08659 whole entry): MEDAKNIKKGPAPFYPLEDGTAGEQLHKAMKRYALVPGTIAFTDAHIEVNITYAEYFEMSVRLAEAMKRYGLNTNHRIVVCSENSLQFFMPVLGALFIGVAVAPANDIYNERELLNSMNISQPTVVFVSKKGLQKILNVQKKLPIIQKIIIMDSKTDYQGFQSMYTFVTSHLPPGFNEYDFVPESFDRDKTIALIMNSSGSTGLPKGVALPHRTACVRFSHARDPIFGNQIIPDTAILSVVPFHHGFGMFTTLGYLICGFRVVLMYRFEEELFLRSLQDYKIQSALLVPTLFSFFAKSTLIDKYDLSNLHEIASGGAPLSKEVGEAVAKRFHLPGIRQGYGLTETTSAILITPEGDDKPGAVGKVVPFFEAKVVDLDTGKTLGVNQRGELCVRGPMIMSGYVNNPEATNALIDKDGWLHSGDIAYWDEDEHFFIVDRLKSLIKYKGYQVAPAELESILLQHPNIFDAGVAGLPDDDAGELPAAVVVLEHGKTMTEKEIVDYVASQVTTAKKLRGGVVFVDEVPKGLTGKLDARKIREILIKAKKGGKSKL

Regarding `CCCCC(c1nnnn1CC1CCCO1)N1CCN(c2nc3ccccc3s2)CC1` (centres undefined), in experiment [1], the EC50 was 1.06 µM (active).
As for `Cc1ccc(O)c(C(=O)c2cc(C#N)c3nc4ccccc4n3c2)c1`, the EC50 in [2] is 17.5 µM (active); in experiment [6] it was 3.28 µM (active). Also, the IC50 is 14.8 µM (active) in [3], > 20 µM (inactive) in experiment [4] and 10.2 µM (inactive) in experiment [5].
As to `CC(Sc1n[nH]c2c3ccccc3nc-2n1)C(=O)NC1CCCCC1` (centres undefined), the IC50 in experiment [3] is 11.1 µM (active); in experiment [4], > 20 µM (inactive); in [5], 9.89 µM (active). Also, the EC50 in experiment [6] was 4.88 µM (active).
For `CCn1c(O)cc(=O)nc1SCC(=O)N1CCCCC1`, the IC50 in [7] is > 50 µM (inactive).
With `CCN1CCN(c2c(S(=O)(=O)c3ccc(C)c(C)c3)cnc3ccc(F)cc23)CC1`, in experiment [1], the EC50 was 0.944 µM (active).
Consider `Cc1ccc(C(CC(=O)NCCCN(C)C)c2ccc(OC(C)C)cc2)cc1` (centres undefined), for which the IC50 in experiment [7] was > 50 µM (inactive).
With `S=C(Nc1ccc(Oc2ccccc2)cc1)N1CCN(c2ccccn2)CC1`, the IC50 in [3] was 5.27 µM (active); in experiment [4], > 20 µM (inactive); in [5] it was 6.67 µM (active). Besides, the EC50 in [6] was 9.44 µM (active).
Turning to `CCOC(=O)C1=NN(C(=O)c2ccc(C)cc2)C(O)(c2ccc(Cl)cc2)C1` (centres undefined), the EC50 in [8] was > 150 µM (not active); in experiment [9], 2.15 µM (active); in [1], 9.44 µM (active); in [10] it was 8.19 µM (active).
In the case of `COc1ccccc1C(=O)n1nc(-c2cccnc2)nc1N`, the IC50 in experiment [7] was 0.503 µM (active).
On to `CN(CCc1ccccn1)C(=S)Nc1cccc(S(=O)(=O)N(C)C)c1`, for which, in experiment [1], the EC50 was 5.31 µM (active).
For the compound `CN(C)C(CNC(=O)CCc1c[nH]c2ccccc12)c1ccccc1` (centres undefined), the EC50 in experiment [1] is 0.0747 µM (active).
With `O=C(Cc1ccccc1[N+](=O)[O-])Nc1ccccc1C(=O)N1CCCC1`, in experiment [7], the IC50 was > 50 µM (inactive).
Take `COCCCn1c(=O)/c(=C\c2ccccc2OC(C)C)s/c1=C(/C#N)C(=O)Nc1ccc(C(=O)O)cc1`: the figures for the IC50 in experiment [7] and in [13] were > 50 µM (inactive) and 3.61 µM (not active), respectively. The EC50 was > 112 µM (not active) in [11]; > 112 µM (not active) in experiment [12]; > 150 µM (not active) in experiment [8]; 1.44 µM (active) in experiment [9]; > 50 µM (not active) in experiment [10].
As for `O=C(Oc1cncc(Cl)c1)c1ccco1`, the IC50 was 1.39 µM (active) in [7] and > 100 µM (inactive) in [14].
